Measurements reported in patent US8076487B2, “Pyridone derivative and herbicide” (Kumiai Chemical Industry Co., Ltd., priority 2006, dated 2011).

Columns and labels:
Format in all cases: in vivo
[1] = test system: Japanese bulrush (Scirpus juncoides Roxb.); assay: Test Example 1: herbicidal effect by soil application to paddy field; conditions: paddy field soil application; active ingredient 1,000 g per 1 hectare; wettable powder added dropwise to water surface the day after sowing; examined on the 21st day after application
In short: (§1)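 Under greenhouse conditions, seeds sown on puddled paddy soil in 100 cm2 pots under 3 cm of standing water received the test compound; injury was assessed with a standard scoring scheme three weeks (day 21) after treatment.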

[2] = test system: early watergrass (Echinochloa oryzicola Vasing); assay: as above; conditions: paddy field soil application; active ingredient 1,000 g per 1 hectare; wettable powder added dropwise to water surface the day after sowing; examined on the 21st day after application
In short: as §1

[3] = test system: heartshape false pickerelweed (Monochoria vaginalis (Burm.f.) C.Presl); assay: as above; conditions: paddy field soil application; active ingredient 1,000 g per 1 hectare; wettable powder added dropwise to water surface the day after sowing; examined on the 21st day after application
In short: as §1

[4] = test system: barnyardgrass (Echinochloa crus-galli (L.) P. Beauv. var. crus-galli); assay: Test Example 3: herbicidal effect by application to upland field (foliage treatment); conditions: 14th day after application; for herbicidal effect, Barnyardgrass: foliage treatment, 1,000 g active ingredient per 1 hectare, greenhouse
In short: (§2)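 A single foliar application of a water-diluted wettable powder, at 1,000 g of active ingredient per hectare, was made to plants raised for two weeks from seed in field soil. Herbicidal activity was judged visually after a further 14 days in the greenhouse.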

[5] = test system: green foxtail (Setaria viridis (L.) P. Beauv.); assay: as above; conditions: 14th day after application; for herbicidal effect, Green Foxtail: foliage treatment, 1,000 g active ingredient per 1 hectare, greenhouse
In short: as §2

[6] = test system: slender amaranth (Amaranthus viridis L.); assay: as above; conditions: 14th day after application; for herbicidal effect, Slender Amaranth: foliage treatment, 1,000 g active ingredient per 1 hectare, greenhouse
In short: as §2

[7] = test system: velvetleaf (Abutilon theophrasti medicus); assay: as above; conditions: 14th day after application; for herbicidal effect, Velvetleaf: foliage treatment, 1,000 g active ingredient per 1 hectare, greenhouse
In short: as §2

[8] = foliage treatment, plants grown two weeks, 1,000 g active ingredient per hectare

CC1CC(C)C(O)=C(C(=O)c2ccc(C(F)(F)F)n(C)c2=O)C1=O (stereo not shown) [II-7]
herbicidal effect, Scirpus juncoides Roxb. [1]: 5 (90% or more of herbicidal effect and crop phytotoxicity)
herbicidal effect, Echinochloa oryzicola Vasing [2]: 5 (90% or more of herbicidal effect and crop phytotoxicity)
herbicidal effect, Monochoria vaginalis (Burm. f.) C. Presl [3]: 5 (90% or more of herbicidal effect and crop phytotoxicity)
herbicidal effect, Barnyardgrass [4]: 4 (70 to less than 90% of herbicidal effect and crop phytotoxicity)
herbicidal effect, Green Foxtail [5]: 4 (70 to less than 90% of herbicidal effect and crop phytotoxicity)
herbicidal effect, Slender Amaranth [6]: 5 (90% or more of herbicidal effect and crop phytotoxicity)
herbicidal effect, Velvetleaf [7]: 5 (90% or more of herbicidal effect and crop phytotoxicity)

CC(C)Nn1c(C(F)(F)F)ccc(C(=O)C2=C(O)CCCC2=O)c1=O [I-160]
herbicidal effect, Scirpus juncoides Roxb. [1]: 5 (90% or more of herbicidal effect and crop phytotoxicity)
herbicidal effect, Echinochloa oryzicola Vasing [2]: 5 (90% or more of herbicidal effect and crop phytotoxicity)
herbicidal effect, Monochoria vaginalis (Burm. f.) C. Presl [3]: 5 (90% or more of herbicidal effect and crop phytotoxicity)
herbicidal effect, Barnyardgrass [4]: 4 (70 to less than 90% of herbicidal effect and crop phytotoxicity)
herbicidal effect, Green Foxtail [5]: 3 (50 to less than 70% of herbicidal effect and crop phytotoxicity)
herbicidal effect, Slender Amaranth [6]: 5 (90% or more of herbicidal effect and crop phytotoxicity)
herbicidal effect, Velvetleaf [7]: 5 (90% or more of herbicidal effect and crop phytotoxicity)

CCN(CC)n1c(C(F)(F)F)ccc(C(=O)C2=C(O)CCCC2=O)c1=O [I-172]
herbicidal effect, Scirpus juncoides Roxb. [1]: 5 (90% or more of herbicidal effect and crop phytotoxicity)
herbicidal effect, Echinochloa oryzicola Vasing [2]: 5 (90% or more of herbicidal effect and crop phytotoxicity)
herbicidal effect, Monochoria vaginalis (Burm. f.) C. Presl [3]: 5 (90% or more of herbicidal effect and crop phytotoxicity)
herbicidal effect, Barnyardgrass [4]: 5 (90% or more of herbicidal effect and crop phytotoxicity)
herbicidal effect, Green Foxtail [5]: 5 (90% or more of herbicidal effect and crop phytotoxicity)
herbicidal effect, Slender Amaranth [6]: 5 (90% or more of herbicidal effect and crop phytotoxicity)
herbicidal effect, Velvetleaf [7]: 5 (90% or more of herbicidal effect and crop phytotoxicity)

Cn1c(C(F)(F)F)ccc(C(=O)C2=C(O)CC(C)(C)CC2=O)c1=O [II-3]
herbicidal effect, Scirpus juncoides Roxb. [1]: 5 (90% or more of herbicidal effect and crop phytotoxicity)
herbicidal effect, Echinochloa oryzicola Vasing [2]: 5 (90% or more of herbicidal effect and crop phytotoxicity)
herbicidal effect, Monochoria vaginalis (Burm. f.) C. Presl [3]: 5 (90% or more of herbicidal effect and crop phytotoxicity)
herbicidal effect, Barnyardgrass [4]: 3 (50 to less than 70% of herbicidal effect and crop phytotoxicity)
herbicidal effect, Green Foxtail [5]: 4 (70 to less than 90% of herbicidal effect and crop phytotoxicity)
herbicidal effect, Slender Amaranth [6]: 5 (90% or more of herbicidal effect and crop phytotoxicity)
herbicidal effect, Velvetleaf [7]: 5 (90% or more of herbicidal effect and crop phytotoxicity)

Cn1ncc(C(=O)c2ccc(C(F)(F)F)n(Cc3c(C(F)(F)F)nn(C)c3OC(F)F)c2=O)c1O [IV-108]
herbicidal effect, Scirpus juncoides Roxb. [1]: 5 (90% or more of herbicidal effect and crop phytotoxicity)
herbicidal effect, Echinochloa oryzicola Vasing [2]: 5 (90% or more of herbicidal effect and crop phytotoxicity)
herbicidal effect, Monochoria vaginalis (Burm. f.) C. Presl [3]: 4 (70 to less than 90% of herbicidal effect and crop phytotoxicity)
herbicidal effect, Barnyardgrass [4]: 4 (70 to less than 90% of herbicidal effect and crop phytotoxicity)
herbicidal effect, Green Foxtail [5]: 4 (70 to less than 90% of herbicidal effect and crop phytotoxicity)
herbicidal effect, Slender Amaranth [6]: 4 (70 to less than 90% of herbicidal effect and crop phytotoxicity)
herbicidal effect, Velvetleaf [7]: 5 (90% or more of herbicidal effect and crop phytotoxicity)

CCn1c(C(F)F)ccc(C(=O)C2=C(O)CCCC2=O)c1=O [I-222]
herbicidal effect, Scirpus juncoides Roxb. [1]: 5 (90% or more of herbicidal effect and crop phytotoxicity)
herbicidal effect, Echinochloa oryzicola Vasing [2]: 5 (90% or more of herbicidal effect and crop phytotoxicity)
herbicidal effect, Monochoria vaginalis (Burm. f.) C. Presl [3]: 5 (90% or more of herbicidal effect and crop phytotoxicity)
herbicidal effect, Barnyardgrass [4]: 5 (90% or more of herbicidal effect and crop phytotoxicity)
herbicidal effect, Green Foxtail [5]: 4 (70 to less than 90% of herbicidal effect and crop phytotoxicity)
herbicidal effect, Slender Amaranth [6]: 5 (90% or more of herbicidal effect and crop phytotoxicity)
herbicidal effect, Velvetleaf [7]: 5 (90% or more of herbicidal effect and crop phytotoxicity)

COc1ccc(-n2c(C(F)(F)F)ccc(C(=O)C3=C(O)CCCC3=O)c2=O)cc1 [I-78]
herbicidal effect, Scirpus juncoides Roxb. [1]: 5 (90% or more of herbicidal effect and crop phytotoxicity)
herbicidal effect, Echinochloa oryzicola Vasing [2]: 5 (90% or more of herbicidal effect and crop phytotoxicity)
herbicidal effect, Monochoria vaginalis (Burm. f.) C. Presl [3]: 5 (90% or more of herbicidal effect and crop phytotoxicity)
herbicidal effect (index), Barnyardgrass [4, 8]: 5 (90% or more of herbicidal effect and crop phytotoxicity)
herbicidal effect (index), Green Foxtail [5, 8]: 5 (90% or more of herbicidal effect and crop phytotoxicity)
herbicidal effect (index), Slender Amaranth [6, 8]: 5 (90% or more of herbicidal effect and crop phytotoxicity)
herbicidal effect (index), Velvetleaf [7, 8]: 5 (90% or more of herbicidal effect and crop phytotoxicity)

Cn1ncc(C(=O)c2ccc(C(F)(F)F)n(-c3ccc(OC(F)(F)F)cc3)c2=O)c1O [IV-67]
herbicidal effect, Scirpus juncoides Roxb. [1]: 5 (90% or more of herbicidal effect and crop phytotoxicity)
herbicidal effect, Echinochloa oryzicola Vasing [2]: 5 (90% or more of herbicidal effect and crop phytotoxicity)
herbicidal effect, Monochoria vaginalis (Burm. f.) C. Presl [3]: 5 (90% or more of herbicidal effect and crop phytotoxicity)
herbicidal effect, Barnyardgrass [4]: 4 (70 to less than 90% of herbicidal effect and crop phytotoxicity)
herbicidal effect, Green Foxtail [5]: 4 (70 to less than 90% of herbicidal effect and crop phytotoxicity)
herbicidal effect, Slender Amaranth [6]: 5 (90% or more of herbicidal effect and crop phytotoxicity)
herbicidal effect, Velvetleaf [7]: 5 (90% or more of herbicidal effect and crop phytotoxicity)

COCCN(C)n1c(C(F)(F)F)ccc(C(=O)C2=C(O)CCCC2=O)c1=O [I-176]
herbicidal effect, Scirpus juncoides Roxb. [1]: 5 (90% or more of herbicidal effect and crop phytotoxicity)
herbicidal effect, Echinochloa oryzicola Vasing [2]: 5 (90% or more of herbicidal effect and crop phytotoxicity)
herbicidal effect, Monochoria vaginalis (Burm. f.) C. Presl [3]: 5 (90% or more of herbicidal effect and crop phytotoxicity)
herbicidal effect, Barnyardgrass [4]: 5 (90% or more of herbicidal effect and crop phytotoxicity)
herbicidal effect, Green Foxtail [5]: 5 (90% or more of herbicidal effect and crop phytotoxicity)
herbicidal effect, Slender Amaranth [6]: 5 (90% or more of herbicidal effect and crop phytotoxicity)
herbicidal effect, Velvetleaf [7]: 5 (90% or more of herbicidal effect and crop phytotoxicity)

CCCc1ccc(C(=O)C2=C(O)CCCC2=O)c(=O)n1-c1ccccc1 [I-231]
herbicidal effect, Scirpus juncoides Roxb. [1]: 5 (90% or more of herbicidal effect and crop phytotoxicity)
herbicidal effect, Echinochloa oryzicola Vasing [2]: 5 (90% or more of herbicidal effect and crop phytotoxicity)
herbicidal effect, Monochoria vaginalis (Burm. f.) C. Presl [3]: 5 (90% or more of herbicidal effect and crop phytotoxicity)
herbicidal effect, Barnyardgrass [4]: 4 (70 to less than 90% of herbicidal effect and crop phytotoxicity)
herbicidal effect, Green Foxtail [5]: 3 (50 to less than 70% of herbicidal effect and crop phytotoxicity)
herbicidal effect, Slender Amaranth [6]: 4 (70 to less than 90% of herbicidal effect and crop phytotoxicity)
herbicidal effect, Velvetleaf [7]: 4 (70 to less than 90% of herbicidal effect and crop phytotoxicity)
